According to patent US7094754B2, “Anti-aging and wound healing compounds” (Kimberly-Clark Worldwide, Inc., priority 2001, dated 2006):

Columns and labels:
pro-MMP-9 = pro-MMP-9 (Homo sapiens, UniProt P14780); experiment: Anti-activation (splicing) assay, pro-MMP-9 with stromilysin, HPLC; assay type: biochemical; details: 0.5 μM or 1.0 μM peptide, 80 minute time course
Experimental: FIG. 12 illustrates the conversion of pro-MMP-9 into N-terminal and C-terminal domains by stromilysin. […] At the times indicated, an aliquot was removed and subjected to HPLC. The pro-MMP peak area was integrated and was set to 100 percent for the zero time point sample.
The assay measures how much proenzyme is converted into mature matrix metalloproteinase. Proenzyme pro-MMP-9 (100 μg) was mixed with 0.5 μg of stromilysin in PBS. The reaction was incubated at 35° C. Aliquots were removed from the reaction over an 80 minute time course. […] The zero (injection) time point was a single peak that elutes from the column in approximately 750 seconds. This peak reduces in size as a function of time, and two new peaks appear. The first peak elutes at approximately 800 seconds, and represents the mature form of MMP-9. The second peak elutes at approximately 1100 seconds, and corresponds to the N-terminal pro-domain fragment. Peak areas were determined by integrating over the elution profile, and the percent area changes were plotted.
The first peak, eluting at approximately 700 seconds, is pro-MMP-9. As the splicing reaction proceeds, this peak decreases in intensity (as marked with the downwards arrow), and two new peaks appear. The first new peak, eluting at approximately 800 seconds, is mature and active MMP-9. The second new peak, eluting at approximately 1050 seconds, is the prodomain. […]

[1] = test system: wounds in C57BL6/KsJ db/db mice; experiment: Wound healing in db/db diabetic mice; assay type: in vivo
Source text: Wounds were created in C57BL6/KsJ db/db mice with a 4 mm biopsy punch. The mice were obtained from The Jackson Laboratories and were aged 3-7 months before the onset of the wounding protocol. All mice were anesthetized prior to wounding. Two wounds were introduced onto the upper back of each animal by pulling the skin away from underlying structures and pushing the punch through the isolated skin. Typically, wounds were created to an average depth of 1.7 mm, with a range of 1.3 to 2.2 mm. No muscle involvement occurred during the course of wounding.
Each day the wounds were digitally photographed and wound areas were determined by computer integration of the photographs. All wound treatments and the subsequent data analyses were performed in a blind manner (see e.g., Brown et al., 1994). Wound area at the time of wounding (day 0) is arbitrarily set to a relative value of 1 for all wounds; such that subsequent wound areas are converted to relative wound areas by dividing the wound area at day n by the wound area at day zero.

[2] = test system: neutrophils isolated from human blood; experiment: Neutrophil migration assay (transwell); assay type: cell-based; details: HSA 0.4%
Experimental: Peptides were synthesized and purified by the Microchemical Facility at Emory University or by SigmaGenesis. All peptides were analyzed by mass spectrometry after HPLC to assess purity. Approximately 0.5–2.0 milligrams of peptide were used to make fresh stock solutions (5 mg/mL in HBSS/HSA) for each migration assay. The peptide stock solutions were used to make more dilute solutions (1 mg/mL, 100 μg/mL, 10 μg/mL, 1 μg/mL, 100 ng/mL, and 10 ng/mL) in HBSS/HSA for the assays.
Neutrophils were isolated from human blood (collected in Vacutainerm tubes containing EDTA) by layering the blood/EDTA mixture (about 20 mL) on top of two layers of Histopaque™ 1119 (bottom layer, 18 mL) and 1077 (top layer, 7 mL) in 50 mL Falcon tubes. The tubes were centrifuged at 1800 rpm for 30 minutes (no brake). Four layers appeared in the tubes after the spin (from top to bottom layers): plasma, 1077, 1119, and red blood cells. The buffy coat between the plasma and 1077 layers contained lymphocytes, monocytes, and some platelets. The plasma layer, the buffy coat, and most of the 1077 layer was removed and discarded. The 1119 layer that contained the neutrophils was removed and was placed into a clean 50 mL tube. Dulbecco's Phosphate Buffered Saline (DPBS) was added to bring the volume to 50 mL. The cells were centrifuged for 15 minutes at 2100 rpm. The cells were resuspended in 10 mL of DPBS, transferred to 15 mL tubes, and centrifuged again for 10 minutes at 2000 rpm. This process was repeated to wash the cells a second time. After the supernatant was removed, the red blood cells were lysed by adding 6 mL of cold sterile water to each 15 mL of supernatant. Cells were mixed in the water for only 30 seconds. Six mL of cold 2% sterile saline was then added. Cells were centrifuged again for 10 minutes at 2000 rpm. The red supernatant (containing hemoglobin from red blood cells) was removed. This process of red blood cell lysis was repeated two more times to remove all of the red blood cells. After most of the red blood cells were removed, neutrophils were resuspended in 10 mL of HBSS/HSA for counting with trypan blue.
A neutrophil migration assay was performed in duplicate using a 24-well transwell plate (3 μm pore size for membrane). Transwell membranes were pre-moistened with 20–40 μL of HBSS/HSA (0.04–0.4%). Chemotactic solutions (500 μL) were added to the bottom of each well. […] Transwells were then placed into the chemotactic solutions. The plate was placed into the incubator (37° C., 5% CO2) for one hour. Cells that migrated through the membrane were counted using trypan blue.
In the neutrophil migration experiments, neutrophils that were isolated were approximately 95% viable. Neutrophils were resuspended in HBSS/0.4%HSA for this experiment. IL-8 (10 nM in the HBSS/0.4%HSA buffer) was used as a positive control for neutrophil migration.

[3] = test system: normal human dermal fibroblasts (Clonetics, CC-2509); experiment: Fibroblast proliferation assay; assay type: cell-based; details: 28 hours
Experimental: A human skin fibroblast cell line (Clonetics, Walkersville, Md., normal human dermal fibroblasts, neonatal, catalog number CC-2509) was tested to ascertain whether exposure to a peptide of the invention would stimulate cellular proliferation. The proliferative response of the human skin fibroblast cell line to thel 9mer peptide (SEQ ID NO:11) was measured in a 96-well assay system using serum-free medium as a control. […] Plates were incubated for 24 hours at 37° C. in a humidified 5% CO2 atmosphere. After incubation, the medium was aspirated and the wells were rinsed twice with 100 μl of serum-free DMEM. […] In addition, 100 μl of vehicle (serum-free DMEM) was added to 10 wells as control. All wells were incubated for 28 hours at 37° C. in a humidified, 5% CO2 atmosphere. After incubation, 20 μl of Cell Titer 96 Aqueous One Solution was added to all wells. The plates were swirled gently and placed back in the incubator for 45 minutes and spectrophotometric absorbance was read at 490 nm. Results were analyzed statistically using one-way ANOVA.

Sequence of pro-MMP-9 (P14780 20-707): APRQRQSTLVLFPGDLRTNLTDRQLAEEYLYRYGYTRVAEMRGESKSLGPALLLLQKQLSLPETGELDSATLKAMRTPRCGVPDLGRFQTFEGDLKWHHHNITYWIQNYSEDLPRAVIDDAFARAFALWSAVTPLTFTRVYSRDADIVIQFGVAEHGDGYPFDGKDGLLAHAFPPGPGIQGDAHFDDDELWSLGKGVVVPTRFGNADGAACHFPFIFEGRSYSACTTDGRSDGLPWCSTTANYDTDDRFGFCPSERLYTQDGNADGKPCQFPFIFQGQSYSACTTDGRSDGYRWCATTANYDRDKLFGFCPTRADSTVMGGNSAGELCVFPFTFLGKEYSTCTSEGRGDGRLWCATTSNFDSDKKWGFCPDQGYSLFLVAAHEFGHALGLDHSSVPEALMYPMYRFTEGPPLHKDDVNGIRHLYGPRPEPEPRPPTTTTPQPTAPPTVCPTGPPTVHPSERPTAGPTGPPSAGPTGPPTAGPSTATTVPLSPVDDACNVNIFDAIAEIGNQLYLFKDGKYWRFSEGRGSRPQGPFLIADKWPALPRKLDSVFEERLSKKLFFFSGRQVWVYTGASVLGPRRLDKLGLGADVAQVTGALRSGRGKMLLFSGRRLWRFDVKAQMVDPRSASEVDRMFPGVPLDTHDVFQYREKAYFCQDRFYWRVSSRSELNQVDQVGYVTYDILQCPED

In the case of `CC(C)[C@H](NC(=O)[C@H](CC(=O)O)NC(=O)[C@@H]1CCCN1C(=O)[C@H](CC(N)=O)NC(=O)CNC(=O)[C@H](CS)NC(=O)[C@H](CCCNC(=N)N)NC(=O)[C@@H]1CCCN1)C(=O)N[C@@H](C)C(=O)N[C@@H](CC(N)=O)C(=O)N[C@@H](Cc1ccc(O)cc1)C(=O)N[C@@H](CC(N)=O)C(=O)N[C@@H](Cc1ccccc1)C(=O)N[C@@H](Cc1ccccc1)C(=O)N1CCC[C@H]1C(=O)N[C@@H](CCCNC(=N)N)C(=O)N[C@@H](CCCCN)C(=O)N1CCC[C@H]1C(=O)N[C@@H](CCCCN)C(=O)O` [19-mer], the “conversion of pro-MMP-9 into prodomain and active enzyme by stromilysin” value (pro-MMP-9) is reported as “prevents the conversion of pro-MMP-9 into the prodomain and the active enzyme”, the “time to full wound closure (average)” value ([1]; single dose 5 μL of 20 μg/mL at time of wounding, saline control 14 days) is reported as 9 days post wounding and the “start of wound contraction process” value ([1]; single dose 5 μL of 20 μg/mL, saline control day 8) is reported as 5 days. For the same compound, the “Percent Neutrophil Migration exp.1” value ([2]; 1 μg/mL) was 32%, the “Percent Neutrophil Migration exp.1” value ([2]; 10 μg/mL) was 22% and the “Percent Neutrophil Migration exp.1” value ([2]; 100 μg/mL) was 29%. The “Percent Neutrophil Migration exp.1” value ([2]; 1 mg/mL, one hour) was 23%, the “fibroblast growth (OD 490 nm) versus control” value ([3]; 1×10^−4 M) was “even greater cell growth” and the “fibroblast growth (OD 490 nm) versus control” value ([3]; 1×10^−5 M) was “significantly greater cell density”. For the same compound, the “fibroblast growth (OD 490 nm) versus control” value ([3]; 1×10^−6 M) was “a small amount of cell proliferation”.
